What was measured:
[1] = target: Dual specificity mitogen-activated protein kinase kinase 1 (Homo sapiens, UniProt Q02750); experiment: MEK 1/2 inhibition
[2] = target: Dual specificity mitogen-activated protein kinase kinase 2 (Homo sapiens, UniProt P36507); experiment: MEK 1/2 inhibition
Chain of Dual specificity mitogen-activated protein kinase kinase 2 (P36507 whole entry): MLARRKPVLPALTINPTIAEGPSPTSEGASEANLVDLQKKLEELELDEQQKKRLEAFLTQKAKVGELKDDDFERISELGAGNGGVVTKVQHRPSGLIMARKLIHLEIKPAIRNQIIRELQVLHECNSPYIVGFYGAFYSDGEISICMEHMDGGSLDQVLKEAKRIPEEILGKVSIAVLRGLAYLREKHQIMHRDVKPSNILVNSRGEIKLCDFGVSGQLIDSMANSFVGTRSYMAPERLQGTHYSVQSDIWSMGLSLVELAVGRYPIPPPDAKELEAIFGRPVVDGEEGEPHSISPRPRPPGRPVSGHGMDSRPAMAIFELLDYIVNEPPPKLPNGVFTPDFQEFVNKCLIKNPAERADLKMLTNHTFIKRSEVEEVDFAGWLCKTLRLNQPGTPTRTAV

Chain of Dual specificity mitogen-activated protein kinase kinase 1 (Q02750 whole entry): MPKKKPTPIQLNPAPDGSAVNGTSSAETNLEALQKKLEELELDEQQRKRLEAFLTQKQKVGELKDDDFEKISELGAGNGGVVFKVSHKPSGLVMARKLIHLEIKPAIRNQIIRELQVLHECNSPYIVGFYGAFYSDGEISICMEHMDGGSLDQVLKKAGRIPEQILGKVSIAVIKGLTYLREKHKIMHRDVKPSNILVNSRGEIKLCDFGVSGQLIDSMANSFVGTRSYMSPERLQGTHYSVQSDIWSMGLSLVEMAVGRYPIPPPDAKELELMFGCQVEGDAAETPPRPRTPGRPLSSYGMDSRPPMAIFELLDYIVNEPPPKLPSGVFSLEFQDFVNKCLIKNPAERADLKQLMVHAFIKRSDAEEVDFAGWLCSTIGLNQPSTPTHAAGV

Compound: O=C(NOC[C@@H](O)CO)c1cc(Br)c(F)c(F)c1Nc1ccc(I)cc1F [US11147816, PD318088]
- IC50 [1]: 1.4 nM

Compound: COc1cc(F)c(F)c(Nc2ccc(I)cc2F)c1NS(=O)(=O)C1(C[C@H](O)CO)CC1 [US11147816, Refametinib (RDEA119, Bay]
- IC50 [2]: 47 nM
